Read-outs that look alike come from different tables or passages of the source.

For 6 molecules, Ki results are on record in publication PMC3313677 (Biochemistry, 2012).

Assay [1] deals with Mandelate racemase (MR, EC 5.1.2.2). The settings on record: cited from earlier work.
The next assay has as its target V26A MR (Pseudomonas putida, UniProt P11444, V26A). Nature of the assay: CD-based competitive inhibition of MR variant V26A. Type of assay: biochemical.
The target of another assay is E317Q MR. As to conditions: read-out: Ki (competitive inhibition constant); cited from earlier work.
For another assay, the target named is A25V MR (Pseudomonas putida, UniProt P11444, A25V). The assay can be described thus: CD-based competitive inhibition of MR variant A25V. The format is biochemical.
Chain of A25V MR (P11444 whole entry A25V): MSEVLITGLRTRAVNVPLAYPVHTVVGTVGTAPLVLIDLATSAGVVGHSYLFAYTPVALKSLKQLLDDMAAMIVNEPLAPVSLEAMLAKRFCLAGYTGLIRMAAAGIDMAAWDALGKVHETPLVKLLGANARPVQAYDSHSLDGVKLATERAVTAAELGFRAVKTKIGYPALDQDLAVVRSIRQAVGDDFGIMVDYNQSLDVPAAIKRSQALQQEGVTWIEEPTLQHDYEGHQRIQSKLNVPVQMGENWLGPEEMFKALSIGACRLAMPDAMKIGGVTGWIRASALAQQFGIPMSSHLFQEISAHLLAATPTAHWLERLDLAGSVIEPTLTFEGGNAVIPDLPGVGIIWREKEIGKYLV
Another assay concerns the target V29A MR (Pseudomonas putida, UniProt P11444, V29A). Nature of the assay: CD-based competitive inhibition of MR variant V29A. Type of assay: biochemical.
For a further assay, the target named is Y54L MR (Pseudomonas putida, UniProt P11444, Y54L). The assay can be described thus: CD-based competitive inhibition of MR variant Y54L. Type of assay: biochemical.
Chain of Y54L MR (P11444 whole entry Y54L): as the sequence (P11444 whole entry A25V) above, with V25A, Y54L counted along it
For another assay, the target named is F52W/Y54W MR. As to conditions: read-out: Ki (competitive inhibition constant); cited from earlier work.
The target in another assay is V29D MR. As to conditions: read-out: Ki (competitive inhibition constant); cited from earlier work.
Another assay concerns the target V26F MR (Pseudomonas putida, UniProt P11444, V26F). The assay can be described thus: CD-based competitive inhibition of MR variant V26F. Type of assay: biochemical.
Another assay has as its target F52W MR. As to conditions: read-out: Ki (competitive inhibition constant); cited from earlier work.
The next assay concerns the target V22I MR (Pseudomonas putida, UniProt P11444, V22I). The assay can be described thus: CD-based competitive inhibition of MR variant V22I. Type of assay: biochemical.
The next assay deals with V29F MR (Pseudomonas putida, UniProt P11444, V29F). Nature of the assay: CD-based competitive inhibition of MR variant V29F. The format is biochemical.
Chain of V29F MR (P11444 whole entry V29F): as the sequence (P11444 whole entry A25V) above, with V25A, V29F counted along it
A further assay concerns the target V22F MR (Pseudomonas putida, UniProt P11444, V22F). Nature of the assay: CD-based competitive inhibition of MR variant V22F. Type of assay: biochemical.
A further assay deals with T24S MR (Pseudomonas putida, UniProt P11444, T24S). Nature of the assay: CD-based competitive inhibition of MR variant T24S. Type of assay: biochemical.
Chain of T24S MR (P11444 whole entry T24S): as the sequence (P11444 whole entry A25V) above, with T24S, V25A counted along it
Another assay concerns the target Y54F MR (Pseudomonas putida, UniProt P11444, Y54F). The assay can be described thus: CD-based competitive inhibition of MR variant Y54F. Type of assay: biochemical.
Another assay addresses N197A MR. As to conditions: read-out: Ki (competitive inhibition constant); cited from earlier work.
The next assay deals with V26L MR (Pseudomonas putida, UniProt P11444, V26L). Nature of the assay: CD-based competitive inhibition of MR variant V26L. Type of assay: biochemical.
Chain of V26L MR (P11444 whole entry V26L): as the sequence (P11444 whole entry A25V) above, with V25A, V26L counted along it
A further assay has as its target V26A/V29L MR (Pseudomonas putida, UniProt P11444, V26A/V29L). The assay can be described thus: CD-based competitive inhibition of MR variant V26A/V29L. The format is biochemical.
The target in a further assay is V22A MR (Pseudomonas putida, UniProt P11444, V22A). Nature of the assay: CD-based competitive inhibition of MR variant V22A. The format is biochemical.
Chain of V22A MR (P11444 whole entry V22A): as the sequence (P11444 whole entry A25V) above, with V22A, V25A counted along it
Setting [2] is: reversible competitive inhibitor of MR.

Chain of V22I MR (P11444 whole entry V22I): as the sequence (P11444 whole entry A25V) above, with V22I, V25A counted along it
Chain of Y54F MR (P11444 whole entry Y54F): as the sequence (P11444 whole entry A25V) above, with V25A, Y54F counted along it
Chain of V26A MR (P11444 whole entry V26A): as the sequence (P11444 whole entry A25V) above, with V25A, V26A counted along it
Chain of V26A/V29L MR (P11444 whole entry V26A/V29L): as the sequence (P11444 whole entry A25V) above, with V25A, V26A, V29L counted along it
Chain of V26F MR (P11444 whole entry V26F): as the sequence (P11444 whole entry A25V) above, with V25A, V26F counted along it
Chain of V22F MR (P11444 whole entry V22F): as the sequence (P11444 whole entry A25V) above, with V22F, V25A counted along it
Chain of V29A MR (P11444 whole entry V29A): as the sequence (P11444 whole entry A25V) above, with V25A, V29A counted along it

Consider `C[C@@](O)(C(=O)O)c1ccccc1` [(S)-atrolactate], for which, in assay [1] (ground state analogue, MR), the Ki is 150 µM.

Take `O=CN(O)c1ccccc1` [N-hydroxyformanilide]: the Ki in [1] (setting [2]) is 2.8 µM.

Regarding `CC(=O)NO` [acetohydroxamate], the Ki in assay [1] (MR) was 27000 µM.

Regarding `O=C(NO)c1ccccc1` [benzohydroxamate], the inhibitory constant (Ki) at V26A MR is 69.3 ± 2.2 µM; on E317Q MR it was 760 ± 31 µM; at A25V MR it was 611 ± 12.2 µM; in assay [1] (setting [2]), 9.3 µM; on V29A MR, 179 ± 23.3 µM; on Y54L MR it was 25.7 ± 1.9 µM. The inhibitory constant (Ki) at F52W/Y54W MR is 640 ± 190 µM; at V29D MR, 2900 ± 700 µM; on V26F MR it was 462 ± 31.7 µM; on F52W MR, 63 ± 10 µM; at V22I MR, 29.2 ± 5.2 µM; at V29F MR, 40.1 ± 0.2 µM. Moreover, the Ki was 229 ± 86.6 µM at V22F MR; 209 ± 9.9 µM at T24S MR; 13.1 ± 1.1 µM on Y54F MR; 216 ± 6 µM at N197A MR; 440 ± 26.9 µM on V26L MR; 79.2 ± 3.6 µM at V26A/V29L MR. On V22A MR, the inhibitory constant (Ki) stood at 1080 ± 460 µM.

On to `O=NN(O)c1ccccc1` [cupferron], for which the Ki in assay [1] (setting [2]) was 2.7 µM.

As for `O=P(O)(O)C(O)c1ccccc1` (stereo not drawn) [α-hydroxybenzylphosphonate], the Ki in [1] (setting [2]) is 4.7 µM.

One may read the Ki as the equilibrium dissociation constant of an inhibitor or competing ligand from its target.
